# Read-outs that look alike come from different tables or passages of the source.
# Tests used:
# caspase 9 = test: Evaluation of caspase activity (Caspase-Glo 9 Assay Kit); type: cell-based; details: MDA-MB-231 cells, 16 hours, compared to untreated MDA-MB-231 cells; 0.5, 1, 5 μM tested
# Experimental: (§1) MDA-MB-231 breast cancer cells (ATCC #HTB-26) were plated in 96-well plates at a density of 1.0 1.5×10^4 cells/well. […] Then, media were removed and the cells were washed two times with PBS at 4° C. The cells were treated with a solution of the analysis samples and media (1:1) in an amount of 140 μL/well using Caspase-GloTM 9 Assay Kit (Cat#. […]; Promega, USA) and Caspase-GloTM 3/7 Assay Kit (Cat#. […]; Promega, USA). After the cells were incubated at 37° C. for 2 hours, luminescence was measured using InfiniteTM M1000 multi reader (Tecan). […] The values were represented as “***” for six fold or more, “**” for 4 fold to below 6 fold, and “*” for 1 fold to below 4 fold, as compared to that of untreated, normal MDA-MB-231 breast cancer cell lines.
# [1] = Toxicity to normal cells (SRB); type: cell-based, mouse; details: mouse, Balb/c3t3 fibroblasts (normal cell line), read-out: BalB/C (GI50)
# Outline: (§2)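 GI50 values come from growth equations comparing treated, untreated and medium-only wells. Fibroblasts (Hs27, Balb/c3t3) got 72 h compound exposure with SRB read-out at 540 nm after TCA fixing. MDA-MB-231 got 120 h with MTS at 490 nm, across 10 μM˜0.1 nM.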
# [2] = tested on: MDA-MB-231 breast cancer cell lines; test: Evaluation of inhibition on cell growth (MTS); type: cell-based; details: Homo sapiens, MDA-MB-231, 120 hours
# Outline: as §2
# [3] = Toxicity to normal cells (SRB); type: cell-based, human; details: human, Hs27 fibroblasts (normal cell line)
# Outline: as §2
# caspase 3/7 = test: Evaluation of caspase activity (Caspase-Glo 3/7 Assay Kit); type: cell-based; details: MDA-MB-231 cells, 12 hours, compared to untreated MDA-MB-231 cells; 0.5, 1, 5 μM tested
# Experimental: as §1
GI50 [2],Structure (SMILES),Caspase-9 (caspase 9),GI50 at 72 h [1],GI50 at 72 h [3],Caspase-3 (caspase 3/7)
≤ 0.1 µM,"CN[C@@H](C)C(=O)N[C@H](C(=O)N1CCC[C@H]1C(=O)Nc1cc2c(Nc3ccc(F)c(F)c3F)ncnc2cc1OC)C(C)(C)C.Cl [Example 17, (S)-1-((S)-3,3-dimethyl-2-((S)-2-(methylamino)propanamido)butanoyl)-N-(7-methoxy-4-(2,3,4-trifluorophenylamino)quinazolin-6-yl)pyrrolidine-2-carboxamide hydrochloride]",*** (six fold or more),> 10 µM,> 10 µM,*** (six fold or more)
≤ 0.1 µM,"CN[C@@H](C)C(=O)N[C@H](C(=O)N1CCC[C@H]1C(=O)Nc1cc2c(Nc3ccccc3F)ncnc2cc1OC)C(C)(C)C.Cl [Example 10, (S)-1-((S)-3,3-dimethyl-2-((S)-2-(methylamino)propanamido)butanoyl)-N-(4-(2-fluorophenylamino)-7-methoxyquinazolin-6-yl)pyrrolidine-2-carboxamide hydrochloride]",*** (six fold or more),> 10 µM,> 10 µM,*** (six fold or more)
≤ 0.1 µM,"CN[C@@H](C)C(=O)N[C@H](C(=O)N1CCC[C@H]1C(=O)Nc1cc2c(Nc3ccccc3)ncnc2cc1OC)C(C)(C)C.Cl [Example 11, (S)—N-(4-phenylamino-7-methoxyquinazolin-6-yl)-1-((S)-3,3-dimethyl-2-((S)-2-(methylamino)propanamido)butanoyl)pyrrolidine-2-carboxamide hydrochloride]",*** (six fold or more),> 10 µM,> 10 µM,*** (six fold or more)
≤ 0.1 µM,"CN[C@@H](C)C(=O)N[C@H](C(=O)N1CCC[C@H]1C(=O)Nc1cc2c(Nc3ccc(F)c(Cl)c3F)ncnc2cc1OC)C1CCCCC1.Cl [Example 15, (S)—N-(4-(3-chloro-2,4-difluorophenylamino)-7-methoxyquinazolin-6-yl)-1-((S)-2-cyclohexyl-2-((S)-2-(methylamino)propanamido)acetyl)pyrrolidine-2-carboxamide hydrochloride]",*** (six fold or more),> 10 µM,> 10 µM,*** (six fold or more)

# The remaining lines, values behind:
Structure (SMILES),GI50 [2],Caspase-9 (caspase 9),GI50 at 72 h [1],GI50 at 72 h [3],Caspase-3 (caspase 3/7)
"CN[C@@H](C)C(=O)N[C@H](C(=O)N1CCC[C@H]1C(=O)Nc1cc2c(Nc3ccc(Cl)c(Cl)c3F)ncnc2cc1OC)C(C)(C)C.Cl [Example 8, (S)—N-(4-(3,4-dichloro-2-fluorophenylamino)-7-methoxyquinazolin-6-yl)-1-((S)-3,3-dimethyl-2-((S)-2-(methylamino)propanamido)butanoyl)pyrrolidine-2-carboxamide hydrochloride]",≤ 0.1 µM,*** (six fold or more),> 10 µM,> 10 µM,*** (six fold or more)
"CN[C@@H](C)C(=O)N[C@H](C(=O)N1CCC[C@H]1C(=O)Nc1cc2c(Nc3cccc(Cl)c3F)ncnc2cc1OCCOC)C(C)(C)C.Cl [Example 2, (S)—N-(4-(3-chloro-2-fluorophenylamino)-7-(2-methoxyethoxy)quinazolin-6-yl)-1-((S)-3,3-dimethyl-2-((S)-2-(methylamino)propanamido)butanoyl)pyrrolidine-2-carboxamide hydrochloride]",0.1 to 1 µM,* (1 fold to below 4 fold),> 10 µM,> 10 µM,** (4 fold to below 6 fold)
"CN[C@@H](C)C(=O)N[C@H](C(=O)N1CCC[C@H]1C(=O)Nc1cc2c(Nc3ccc(Br)cc3F)ncnc2cc1OC)C(C)(C)C.Cl [Example 9, (S)—N-(4-(4-bromo-2-fluorophenylamino)-7-methoxyquinazolin-6-yl)-1-((S)-3,3-dimethyl-2-((S)-2-(methylamino)propanamido)butanoyl)pyrrolidine-2-carboxamide hydrochloride]",≤ 0.1 µM,*** (six fold or more),> 10 µM,> 10 µM,*** (six fold or more)
